Experimental data reported in PubChem BioAssay (NCI).
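Five concentrations, 48 hours, 96-well plates. TGI marks complete inhibition of growth.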

Tests used:
Assay in all cases: NCI tumour cell line growth inhibition, 48 h
[1] = system: DMS 114 small cell lung
[2] = system: DMS 273 small cell lung
[3] = system: KM20L2 colon
[4] = system: LXFL 529 NSCLC
[5] = system: SNB-78 CNS
[6] = system: XF 498 CNS

Measured: TGI

C=CCNC(=S)N1c2ccccc2NC(=O)CC1C (stereo unspecified)
> 100 µM: all assays above
